Assay in all cases: NCI tumour cell line growth inhibition, 48 h
The subject of experiment [1] is MDA-MB-435.
Experiment [2] deals with EKVX NSCLC.
In experiment [3] the test system is TK-10 renal.
The test system of experiment [4] is IGROV1 ovarian.
In experiment [5] the test system is OVCAR-8 ovarian.
Experiment [6] has as its system SF-295 CNS.
Experiment [7] has as its system ACHN renal.
Experiment [8] deals with CAKI-1 renal.

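Assay format: 96-well plates, 48-hour exposure. At the GI50, growth is halved. The concentration for full growth arrest is given as TGI.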

Data on 19 molecules can be found in PubChem BioAssay (NCI).

On to `N#Cc1c(-c2ccc(F)cc2)nc(N/N=C/c2c[nH]c3ccccc23)nc1N1CCOCC1`, for which the GI50 was 9.26 µM in experiment [1]; 5.44 µM in experiment [2]; 15.5 µM in experiment [3]; 12.8 µM in experiment [4]; 7.63 µM in experiment [5]; 1.89 µM in experiment [6]. In experiment [7], the GI50 was 2.24 µM. Further, the TGI in experiment [1] came to 74.9 µM; in experiment [2], 86.9 µM; in experiment [3], 61 µM; in experiment [4] it was 79.7 µM; in experiment [5], 93.8 µM; in experiment [6], 4.29 µM. Besides, the TGI in experiment [7] is 30.7 µM.

Take `CC(=O)OC/C=C(/C=C/CNC1CCCCC1)OC(C)=O`: the TGI in experiment [1] was determined as 30.4 µM; in experiment [2], 30.1 µM; in experiment [3] it was 30.6 µM; in experiment [4] it was 34.3 µM; in experiment [8], 26.7 µM; in experiment [6] it was 33.2 µM. This molecule also gave a TGI in experiment [7] of 30.1 µM.

As for `COCC1OC(N2C(=O)NC(=O)[C@@H]3C=C4CCCCC4=C[C@@H]32)C(OC)C1OC` (stereo not given in full), the TGI in experiment [1], in experiment [2], in experiment [3], in experiment [4], in experiment [5] and in experiment [6] was more than 100 µM in each case. This molecule returned a TGI in experiment [7] of more than 100 µM.

As for `CC1(C(=O)O)CCCC1C(=O)O` (stereo not given), the TGI in experiment [2], in experiment [3], in experiment [4], in experiment [5], in experiment [8] and in experiment [6] was more than 100 µM throughout. In experiment [7], this molecule showed a TGI of more than 100 µM.

Turning to `C=C1CC(C)(c2ccc(Nc3nc4ccccc4c4occc34)cc2)OC1=O` (stereo not given), the TGI in experiment [1] was 6.09 µM; in experiment [2] it was 24.5 µM; in experiment [3], 16.7 µM; in experiment [5], 11.4 µM; in experiment [8], 40.3 µM; in experiment [6], 27.4 µM. Further, in experiment [7], the TGI amounted to 17.8 µM.

Take `COC(=O)c1ccc(C=Nc2ccc(S(N)(=O)=O)cc2)cc1`: the TGI in experiment [1], in experiment [2], in experiment [3], in experiment [5], in experiment [8] and in experiment [6] was more than 100 µM in each case. This molecule returned a TGI in experiment [7] of more than 100 µM.

For the molecule `Cn1c([O-])nc(-n2cc[n+](C)c2)cc1=O`, the TGI in experiment [1], in experiment [2], in experiment [3], in experiment [4] and in experiment [7] was more than 100 µM in each case.

On to `O=C1C=C(c2ccccc2)O/C1=C/C(=O)c1ccc(Cl)cc1`, for which the TGI in experiment [1] was 28.5 µM; in experiment [2], more than 100 µM; in experiment [3], 35.3 µM; in experiment [4], 35.9 µM; in experiment [5], 74.8 µM; in experiment [8], 27.6 µM. Moreover, in experiment [7], the TGI worked out at 30.5 µM.

On to `CSc1nc2c(c(=O)n1C)N=C(c1ccccc1)[C@H](C(CC(=O)c1ccccc1)c1ccccc1)C(c1ccccc1)N2` (stereo not given in full), for which the TGI in experiment [1], in experiment [2], in experiment [4], in experiment [5], in experiment [8] and in experiment [6] was more than 100 µM throughout. Further, the TGI in experiment [7] was more than 100 µM.

On to `CC1(C)OCC2OC3([C@H]4OC(C)(C)O[C@@H]4CO)OC(C)(C)OC3C2O1` (stereo not given in full), for which the TGI in experiment [1], in experiment [2], in experiment [4], in experiment [5], in experiment [8] and in experiment [6] was more than 100 µM each time. In experiment [7], this molecule returned a TGI of more than 100 µM.

In the case of `COc1ccc(Nc2nc3c([nH]2)c(=O)n(C)c(=O)n3C)cc1`, the TGI in experiment [1], in experiment [2], in experiment [3], in experiment [4], in experiment [5] and in experiment [8] was more than 10 µM each time. In experiment [6], this molecule displayed a TGI of more than 10 µM.

Take `O=C(Cc1ccc([N+](=O)[O-])cc1)OCC#CCOC(=O)Cc1ccc([N+](=O)[O-])cc1`: the TGI in experiment [1], in experiment [2], in experiment [3], in experiment [4], in experiment [5] and in experiment [6] was more than 10 µM each time. In addition, the TGI in experiment [7] is more than 10 µM.

Consider `O=c1oc2cc(O)ccc2c(O)c1C(c1ccc(C(c2c(O)c3ccc(O)cc3oc2=O)c2c(O)c3ccc(O)cc3oc2=O)cc1)c1c(O)c2ccc(O)cc2oc1=O`, for which the TGI in experiment [1], in experiment [2], in experiment [3], in experiment [4], in experiment [5] and in experiment [8] was more than 100 µM throughout. Moreover, the TGI in experiment [6] was more than 100 µM.

As for `Nc1ccc2[nH]c(-c3cccc(Cl)c3)cc(=O)c2c1`, the TGI was 2.39 µM in experiment [1]; more than 100 µM in experiment [2]; 8.55 µM in experiment [3]; more than 100 µM in experiment [4]; more than 100 µM in experiment [5]; more than 100 µM in experiment [7].

On to `COc1ccc(-c2c(C#N)c(N)nc3c2CCS(=O)(=O)c2ccccc2-3)cc1`, for which the TGI in experiment [1], in experiment [3], in experiment [4], in experiment [5], in experiment [8] and in experiment [7] was more than 100 µM throughout.

Regarding `O=C(Cc1ccccc1)NN1C(=O)/C(=C\c2ccc([N+](=O)[O-])cc2)SC1=Nc1ccccc1`, the TGI in experiment [1], in experiment [2], in experiment [3], in experiment [4], in experiment [5] and in experiment [6] was more than 100 µM each time. In experiment [7], this molecule yielded a TGI of more than 100 µM.

In the case of `Cc1cn([C@@H]2C[C@H]2CO)c(=O)[nH]c1=O`, the TGI in experiment [1], in experiment [2], in experiment [3], in experiment [4], in experiment [5] and in experiment [8] was more than 100 µM in each case. Also, in experiment [7], the TGI is more than 100 µM.

On to `O=C(N/N=C/c1ccco1)c1cc(I)cc(I)c1O`, for which the TGI in experiment [1] was more than 50 µM; in experiment [2] it was 37.2 µM; in experiment [4] it was more than 50 µM; in experiment [5], more than 50 µM; in experiment [8], more than 50 µM; in experiment [7], more than 50 µM.

As for `CN(C)S(=O)(=O)Nc1nnc(S(N)(=O)=O)s1`, the TGI in experiment [1], in experiment [2], in experiment [3], in experiment [4], in experiment [8] and in experiment [6] was more than 100 µM each time. Besides, the TGI in experiment [7] is more than 100 µM.
